Test results as given in PubChem BioAssay AID588605 (Sanford-Burnham Center for Chemical Genomics, 2011).
Calls of active or inactive are those of the source. How the calls were made is not given here.

Target: Alkaline phosphatase, tissue-nonspecific isozyme (Homo sapiens) (UniProt P05186)
Experiment: TNAP enzyme activity modulation, counter to mouse IAP activators, SAR follow-up, selectivity assay for mouse IAP activator project, biochemical, set 2 (AID 588605)
Details: SAR counter-screen for mouse IAP activators

Alkaline phosphatase, tissue-nonspecific isozyme (Homo sapiens), sequence (P05186 whole entry, looked up): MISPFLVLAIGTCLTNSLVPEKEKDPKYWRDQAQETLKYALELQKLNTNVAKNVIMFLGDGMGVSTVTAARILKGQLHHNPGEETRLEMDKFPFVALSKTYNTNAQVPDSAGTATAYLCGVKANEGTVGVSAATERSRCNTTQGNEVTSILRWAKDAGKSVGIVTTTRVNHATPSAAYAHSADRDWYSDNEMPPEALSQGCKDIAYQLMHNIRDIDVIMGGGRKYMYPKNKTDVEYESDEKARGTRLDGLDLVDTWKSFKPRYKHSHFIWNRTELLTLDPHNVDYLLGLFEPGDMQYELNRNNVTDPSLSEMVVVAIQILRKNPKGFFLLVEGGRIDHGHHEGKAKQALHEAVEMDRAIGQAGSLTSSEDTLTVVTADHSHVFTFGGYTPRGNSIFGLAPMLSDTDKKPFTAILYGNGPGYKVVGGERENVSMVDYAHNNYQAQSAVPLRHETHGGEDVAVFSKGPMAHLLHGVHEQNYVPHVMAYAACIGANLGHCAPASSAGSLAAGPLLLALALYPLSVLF

| EC50 | Structure (SMILES) |
| --- | --- |
| > 100 µM (inactive) | O=C(NC(=S)Nc1cc(S(=O)(=O)N2CCOCC2)ccc1N1CCOCC1)c1ccco1 |
| 45.8 µM | CCN(CC)S(=O)(=O)c1ccc(NC(=S)NCC(c2ccccc2)c2ccccc2)cc1 |
| 75.6 µM | Cc1ccccc1CNC(=S)Nc1ccc(S(=O)(=O)N(C)C)cc1 |
| > 100 µM (inactive) | CN(C)S(=O)(=O)c1cccc(NC(=S)NCCN2CCCC2)c1 |
| 38.6 µM | CN(C)S(=O)(=O)c1ccc(NC(=S)NCCC(c2ccccc2)c2ccccc2)cc1 |
| > 100 µM (inactive) | CN(C)CC(C)(C)CNC(=S)Nc1cccc(S(=O)(=O)N(C)C)c1 |
| 25.5 µM | O=S(=O)(c1ccc(NC(=S)NCC(c2ccccc2)c2ccccc2)cc1)N1CCCCC1 |
| 18.4 µM | CN(C)S(=O)(=O)c1ccc(NC(=S)NC(c2ccccc2)c2ccccc2)cc1 |
| > 100 µM (inactive) | CN(C)S(=O)(=O)c1ccc(NC(=S)NCCN2CCCC2)cc1 |
| 57.9 µM | Cc1ccc(S(=O)(=O)N(C)C)cc1NC(=S)NC(C)CCCC(C)C (centres undefined) |
| 57.9 µM | CN(C)S(=O)(=O)c1cccc(NC(=S)NCCc2cccc(Br)c2)c1 |
| > 100 µM (inactive) | CN(C)S(=O)(=O)c1cccc(NC(=S)NCCC(c2ccccc2)c2ccccc2)c1 |
| 86.7 µM | CN(C)S(=O)(=O)c1cccc(NC(=S)NCCc2ccc(Br)cc2)c1 |
| > 100 µM (inactive) | CN(C)S(=O)(=O)c1cccc(NC(=S)NCCc2cccc(O)c2)c1 |
| 91.5 µM | CN(C)S(=O)(=O)c1cccc(NC(=S)NC(C)(C)CC(C)(C)C)c1 |
| > 100 µM (inactive) | CN(CCc1ccccn1)C(=S)Nc1cccc(S(=O)(=O)N(C)C)c1 |
| 92.5 µM | CN(C)S(=O)(=O)c1cccc(NC(=S)NCc2ccc(Cl)cc2)c1 |
| > 100 µM (inactive) | CN(C)S(=O)(=O)c1cccc(NC(=S)NCCc2ccc(F)cc2)c1 |
| > 100 µM (inactive) | Cc1ccc(CNC(=S)Nc2cccc(S(=O)(=O)N(C)C)c2)cc1 |
| 87.1 µM | Cc1ccc(S(=O)(=O)N(C)C)cc1NC(=S)NC(C)CCC(C)C (centres undefined) |
| > 100 µM (inactive) | CCN(CC)CCCNC(=S)Nc1cccc(S(=O)(=O)N(C)C)c1 |
| 65.5 µM | CN(C)S(=O)(=O)c1ccc(NC(=S)NCCc2cccc(Br)c2)cc1 |

| EC50 | Structure (SMILES) |
| --- | --- |
| > 100 µM (inactive) | CN(C)S(=O)(=O)c1cccc(NC(=S)NCCCN2CCCC2=O)c1 |
| > 100 µM (inactive) | CN(C)CCCNC(=S)Nc1cccc(S(=O)(=O)N(C)C)c1 |
| 95.2 µM | CN(C)S(=O)(=O)c1ccc(NC(=S)NCC(c2ccccc2)c2ccccc2)cc1 |
| > 100 µM (inactive) | CN(C)S(=O)(=O)c1ccc(NC(=S)NCc2ccc(Cl)cc2)cc1 |
| > 100 µM (inactive) | CN(C)S(=O)(=O)c1cccc(NC(=S)NCCC(=O)N2CCCC2)c1 |
| > 100 µM (inactive) | CN(C)S(=O)(=O)c1cccc(NC(=S)NCCc2cccc(F)c2)c1 |
| 49.8 µM | O=S(=O)(c1ccc(NC(=S)NCCC(c2ccccc2)c2ccccc2)cc1)N1CCCC1 |
| 22.9 µM | CN(C)S(=O)(=O)c1cccc(NC(=S)NCC(c2ccccc2)c2ccccc2)c1 |
| 19.9 µM | O=S(=O)(c1ccc(NC(=S)NCC(c2ccccc2)c2ccccc2)cc1)N1CCCC1 |
| > 100 µM (inactive) | CC1CC(NC(=S)Nc2cccc(S(=O)(=O)N(C)C)c2)CC(C)N1 (centres undefined) |
| > 100 µM (inactive) | O=c1c2ccccc2[nH]c(=S)n1-c1cccc(S(=O)(=O)N2CCCC2)c1 |
| 18.9 µM | CC1CCN(S(=O)(=O)c2ccc(NC(=S)NCCC(c3ccccc3)c3ccccc3)cc2)CC1 |
| 94.4 µM | COc1ccc(CCNC(=S)Nc2ccc(S(=O)(=O)N3CCCCC3)cc2)cc1OC |
| 90.3 µM | COc1cccc(CCNC(=S)Nc2cccc(S(=O)(=O)N(C)C)c2)c1 |
| > 100 µM (inactive) | CN(C)S(=O)(=O)c1ccc(NC(=S)NCCc2cccc(O)c2)cc1 |
| 40.1 µM | COc1ccc(CCNC(=S)Nc2ccc(S(=O)(=O)N3CCCCC3)cc2)cc1 |
| > 100 µM (inactive) | CCN(CC)c1ccc(C(=O)NC(=S)Nc2cc(S(=O)(=O)N3CCOCC3)ccc2-n2cncn2)cc1 |
| > 100 µM (inactive) | O=C(CCc1ccccc1)NC(=S)Nc1cccc(S(=O)(=O)N2CCCC2)c1 |
| > 100 µM (inactive) | Cc1ccc(S(=O)(=O)N(C)C)cc1NC(=S)NCCCn1ccnc1 |
| > 100 µM (inactive) | O=C(NC(=S)Nc1cc(S(=O)(=O)N2CCOCC2)ccc1O)c1ccco1 |
| > 100 µM (inactive) | COc1cccc(CNC(=S)Nc2ccc(S(=O)(=O)N(C)C)cc2)c1 |
| > 100 µM (inactive) | CCOc1cc(CCNC(=S)Nc2ccc(S(=O)(=O)N(C)C)cc2)ccc1OC |

| EC50 | Structure (SMILES) |
| --- | --- |
| 20 µM | CN(C)S(=O)(=O)c1cccc(NC(=S)NC(c2ccccc2)c2ccccc2)c1 |
| 11 µM | O=S(=O)(c1ccc(NC(=S)NC(c2ccccc2)c2ccccc2)cc1)N1CCCCC1 |
| > 100 µM (inactive) | Cc1ccc(C)c(NC(=S)Nc2ccc(S(=O)(=O)N3CCCCC3)cc2)c1 |
| 26.1 µM | O=S(=O)(c1ccc(NC(=S)NC(c2ccccc2)c2ccccc2)cc1)N1CCCC1 |
| 29.7 µM | CCN(CC)S(=O)(=O)c1ccc(NC(=S)NCCC(c2ccccc2)c2ccccc2)cc1 |
| 86.1 µM | Cc1ccc(CNC(=S)Nc2ccc(S(=O)(=O)N(C)C)cc2)cc1 |
| > 100 µM (inactive) | Cc1ccc(S(=O)(=O)N(C)C)cc1NC(=S)NC1CCN(Cc2ccccc2)CC1 |
| 89.9 µM | COc1ccccc1CNC(=S)Nc1ccc(S(=O)(=O)N(C)C)cc1 |
| 47.2 µM | O=S(=O)(c1ccc(NC(=S)NCCC(c2ccccc2)c2ccccc2)cc1)N1CCCCC1 |
| 62.8 µM | CC(CCc1ccccc1)NC(=S)Nc1cccc(S(=O)(=O)N(C)C)c1 (centres undefined) |
| 97.8 µM | CN(C)S(=O)(=O)c1cccc(NC(=S)NCCc2ccccc2)c1 |
| 53.6 µM | O=S(=O)(c1ccc(NC(=S)NCc2cccc(F)c2)cc1)N1CCCCC1 |
| > 100 µM (inactive) | CN(C)S(=O)(=O)c1cccc(NC(=S)NCCCn2ccnc2)c1 |
| > 100 µM (inactive) | CC1CCN(S(=O)(=O)c2ccc(NC(=S)NC(c3ccccc3)c3ccccc3)cc2)CC1 |
| > 100 µM (inactive) | CN(CCc1ccccc1)C(=S)Nc1cccc(S(=O)(=O)N(C)C)c1 |
| 29 µM | CCN(CC)S(=O)(=O)c1ccc(NC(=S)NC(c2ccccc2)c2ccccc2)cc1 |
| > 100 µM (inactive) | Cc1ccc(S(=O)(=O)N(C)C)cc1NC(=S)NC(=O)C12CC3CC(CC(C3)C1)C2 |
| 75.3 µM | COc1ccc(CNC(=S)Nc2ccc(S(=O)(=O)N3CCCCC3)cc2)cc1OC |
| > 100 µM (inactive) | CC(CNC(=S)Nc1cccc(S(=O)(=O)N(C)C)c1)N1CCN(c2ccccc2)CC1 (centres undefined) |
| > 100 µM (inactive) | CN(C)S(=O)(=O)c1ccc(NC(=S)NCCc2ccccc2)cc1 |
